Patent publication US20220243211A1, “PEPTIDE NUCLEIC ACID COMPOSITIONS WITH MODIFIED HOOGSTEEN BINDING SEGMENTS AND METHODS OF USE THEREOF” (Yale University, priority 2019, published 2022)

How the values were obtained:
[1] = tested on: F508 del CFTR in CFBE cells at ALI; assay: Digital droplet PCR quantification of gene editing; assay type: cell-based, human; settings: apical PNA/DNA NPs, 2 mg/dose, 3 doses
Method: FIG. 5A is a Schematic of treatment of cells grown at ALI. FIG. 5B is a bar graph showing Ussing Chamber assay results. CFBE cells at ALI were treated apically at 2 mg/dose for 3 doses with 48 hours between each dose **p<0.001; ***p<0.002. FIG. 5C is a dot plot showing digital droplet (ddPCR) quantification of gene editing in genomic DNA isolated from CFBE cells at ALI treated apically at 2 mg/dose for 3 doses with 48 hours between each dose ***p<0.002.
Nanoparticles were suspended in culture media, vortexted, and sonicated in a water bath (30s) and added directly to cells. For cells treated on collagen-coated plastic in 12-well plates, the cells were treated at a concentration of 2 mg/mL. For cells treated in 6-well plates at ALI, the cells were treated apically with 250 uL of media containing 2 mg of particles. […]
gDNA was extracted from CFBE cells using the Wizard SV DNA Purification System (Promega, Madison, Wis.) according to manufacturer's instructions. The concentration of extracted gDNA samples was measured using a QuBit® dsDNA BR assay kit (Invitrogen, Carlsbad, Calif.) according to manufacturer's instructions. […] Droplets were allowed to rest at 4° C. for at least 30 minutes after cycling and were then read using the QX200™ Droplet Reader (Bio-Rad). Data were analyzed using QuantaSoft™ software. […]

[2] = tested on: F508del CFTR gene in CFBE cells; assay: Allele-specific PCR for gene modification; assay type: cell-based, human; settings: CFBE cells treated with PNA/donor DNA NPs
Method: Genomic DNA was harvested from cells and purified using the Wizard Genomic DNA Purification kit (Promega, Madison Wis.). Equal amounts of genomic DNA from each sample were subjected to allele-specific PCR (ASPCR), with a gene-specific reverse primer, and an allele-specific forward primer. PCR was performed using a Eppendorf master cycler X50. PCR products were separated on a 1% agarose gel and visualized using a gel imager.
AS-PCR conditions are as follows. Platinum Taq polymerase (Invitrogen, Carlsbad Calif.) was used for PCR reactions: 5 uL betaine, 4.25 uL water, 2.5 uL 10× Platinum Taq PCR buffer, 1.25 uL 50 mM MgCl2, 0.5 uL dNTPs, 0.5 uL each primer at 10 uM, 0.5 uL Platinum Taq polymerase, and 10 uL of genomic DNA at 40 ng/uL. PCR cycler conditions for human CFTR were as follows: 95° C. 2 min, 94° C. 30 sec, 69° C. 1 min, 72° C. 1 min, 94° C. 30 sec, 68° C. 1 min, 72° C. 1 min, 94° C. 30 sec, 67° C. 1 min, 72° C. 1 min, 94° C. 30 sec, 66° C. 1 min, 72° C. 1 min, 94° C. 30 sec, 65° C. 1 min, 72° C. 1 min, [94° C. 30 sec, 65° C. 1 min, 72° C. 1 min]×35 cycles, 72° C. 2 min, hold at 4° C. 1.
Gene-specific reverse primer: (reverse complement starting from nt 80162): 5′ […]

[3] = Zeta potential and hydrodynamic diameter of formulated NPs by dynamic light scattering; assay type: physicochemical; settings: NPs containing PNA/donor DNA, PBS buffer, n = 3; for Z Av Diameter: dynamic light scattering
Method: Blank NPs containing no PNA and a mismatch donor DNA as a control were prepared as a control. The mismatched donor DNA was purposely added into blank NPs because addition of donor DNA helps to produce a similar surface charge on the control NPs as on the test NPs encapsulated with PNA/donor DNA combinations. […] All NP in the diameters were in the range of 200-350 nm, as measured by dynamic light scattering (Table 1), consistent with previous measurements (McNeer, et al., Nat Commun 6, 6952 (2015), Fields, et al., Adv Healthc Mater 4, 361-366 (2015), Fields, et al., J Control Release 164, 41-48 (2012)). PNA/DNA-loaded NPs were cationic (Fields, et al., Adv Healthc Mater 4, 361-366 (2015), Fields, et al., J Control Release 164, 41-48 (2012)) for PBAE/PLGA/MPG NPs (Table 1).

Substance	gene editing (ddPCR, fractional abundance of edited CFTR allele) [1]	gene modification by allele-specific PCR [2]	Zeta Potential [3] [mV]	Z Av Diameter [3] [nm]
H-KKK-TJTJJTTT-OOO-TTTCCTCTATGGGTAAG-KKK-NH2 [hCF PNA] (TNTNNTTTTTTCCTCTATGGGTAAG; listed as DNA, chemistry not fully specified)	minimal correction	had the desired gene modification	14.2	291.7
H-KKK-TJTJJTTT-OOO-TTTCCTCTATGGGTAAG-KKK-NH2 [γhCF PNA-h] (TNTNNTTTTTTCCTCTATGGGTAAG; listed as DNA, chemistry not fully specified) [tail clamp PNA targeting human CFTR gene with MPγ monomers in Hoogsteen domain]	−5%	had the desired gene modification	13.3	293.2
